For this experiment, the system named is MV-4-11 cells. The experiment is described as follows: Gene expression microarray analysis (Affymetrix PrimeView) and GSEA. The experiment is classed as cell-based, human. More on the design: RFU PODN (11730768_x_at) / Fold change /veh PODN (11730768_x_at) / RFU LINC00158 (11744669_a_at) / Fold change /veh LINC00158 (11744669_a_at) / RFU DUSP10 (11751237_a_at) / Fold change /veh DUSP10 (11751237_a_at) / RFU ID3 (11757404_x_at) / Fold change /veh ID3 (11757404_x_at) / RFU PLEKHG5 (11737974_s_at) / Fold change /veh PLEKHG5 (11737974_s_at) / RFU LRRC4B (11730491_at) / Fold change /veh LRRC4B (11730491_at) / RFU GIMAP4 (11747438_a_at) / Fold change /veh GIMAP4 (11747438_a_at) / RFU KRT8 (11758183_x_at) / Fold change /veh KRT8 (11758183_x_at) / RFU CNN1 (11734310_a_at) / Fold change /veh CNN1 (11734310_a_at) / RFU VPS37D (11726825_at) / Fold change /veh VPS37D (11726825_at) / RFU C10orf10 (11716522_x_at) / Fold change /veh C10orf10 (11716522_x_at) / RFU KIR2DL2 /// KIR2DL4 /// KIR2DL5A /// KIR2DL5B /// KIR2DS1 /// KIR2DS2 /// KIR2DS3 /// KIR2DS4 /// KIR3DL3 /// KIR3DL3 /// KIR3DS1 (11738374_at) / Fold change /veh KIR2DL2 /// KIR2DL4 /// KIR2DL5A /// KIR2DL5B /// KIR2DS1 /// KIR2DS2 /// KIR2DS3 /// KIR2DS4 /// KIR3DL3 /// KIR3DL3 /// KIR3DS1 (11738374_at) / RFU C1QL1 (11718748_at) / Fold change /veh C1QL1 (11718748_at) / RFU TMPRSS4 (11747572_a_at) / Fold change /veh TMPRSS4 (11747572_a_at) / RFU HAMP (11756126_x_at) / Fold change /veh HAMP (11756126_x_at) / RFU RNFT2 (11725882_a_at) / Fold change /veh RNFT2 (11725882_a_at) / RFU NR4A2 (11747474_a_at) / Fold change /veh NR4A2 (11747474_a_at) / RFU ABCC12 (11746883_a_at) / Fold change /veh ABCC12 (11746883_a_at) / RFU TMEM136 (11760407_x_at) / Fold change /veh TMEM136 (11760407_x_at) / RFU CLDN22 /// WWC2 (11732394_at) / Fold change /veh CLDN22 /// WWC2 (11732394_at) / RFU HLA-DPB1 (11760878_x_at) / Fold change /veh HLA-DPB1 (11760878_x_at) / RFU SPINT1 (11716480_a_at) / Fold change /veh SPINT1 (11716480_a_at) / RFU GAP43 (11754022_s_at) / Fold change /veh GAP43 (11754022_s_at) / RFU A4GNT (11735810_at) / Fold change /veh A4GNT (11735810_at) / RFU PRB3 (11715151_x_at) / Fold change /veh PRB3 (11715151_x_at) / RFU TUBB4B (11761932_at) / Fold change /veh TUBB4B (11761932_at) / RFU CAPN14 (11732068_a_at) / Fold change /veh CAPN14 (11732068_a_at) / RFU TMCC2 (11721928_a_at) / Fold change /veh TMCC2 (11721928_a_at) / RFU IRGQ (11745062_a_at) / Fold change /veh IRGQ (11745062_a_at) / RFU FAM174B (11720279_a_at) / Fold change /veh FAM174B (11720279_a_at) / RFU TMPRSS4 (11748680_a_at) / Fold change /veh TMPRSS4 (11748680_a_at) / RFU FAM212B (11763350_a_at) / Fold change /veh FAM212B (11763350_a_at) / RFU PLEKHG5 (11743358_a_at) / Fold change /veh PLEKHG5 (11743358_a_at) / RFU ZSCAN30 (11745921_a_at) / Fold change /veh ZSCAN30 (11745921_a_at) / RFU CMKLR1 (11741424_a_at) / Fold change /veh CMKLR1 (11741424_a_at) / RFU LOC101060620 /// MAPK8IP1 (11723275_at) / Fold change /veh LOC101060620 /// MAPK8IP1 (11723275_at) / RFU SPTSSB (11747773_x_at) / Fold change /veh SPTSSB (11747773_x_at) / RFU PRSS12 (11739890_at) / Fold change /veh PRSS12 (11739890_at) / RFU BIN1 (11741810_x_at) / Fold change /veh BIN1 (11741810_x_at) / RFU WNT11 (11732464_a_at) / Fold change /veh WNT11 (11732464_a_at) / RFU C10orf10 (11716521_a_at) / Fold change /veh C10orf10 (11716521_a_at) / RFU C5orf56 (11738089_at) / Fold change /veh C5orf56 (11738089_at) / RFU CYB561 (11721691_x_at) / Fold change /veh CYB561 (11721691_x_at) / RFU ANKRD19P (11752326_a_at) / Fold change /veh ANKRD19P (11752326_a_at) / RFU OR2T12 /// OR2T33 /// OR2T8 (11738714_s_at) / Fold change /veh OR2T12 /// OR2T33 /// OR2T8 (11738714_s_at) / RFU VCAN (11748164_a_at) / Fold change /veh VCAN (11748164_a_at) / RFU JSRP1 (11732532_at) / Fold change /veh JSRP1 (11732532_at) / RFU KRTAP10-11 (11738290_x_at) / Fold change /veh KRTAP10-11 (11738290_x_at) / RFU MYO3A (11730013_a_at) / Fold change /veh MYO3A (11730013_a_at) / RFU EBF3 (11725865_a_at) / Fold change /veh EBF3 (11725865_a_at) / RFU CAMK2N1 (11719241_x_at) / Fold change /veh CAMK2N1 (11719241_x_at) / RFU C5orf56 (11738088_a_at) / Fold change /veh C5orf56 (11738088_a_at) / RFU OLFML3 (11715873_a_at) / Fold change /veh OLFML3 (11715873_a_at) / RFU LOC100653217 /// NTM (11731650_a_at) / Fold change /veh LOC100653217 /// NTM (11731650_a_at) / RFU MAPK11 (11762145_a_at) / Fold change /veh MAPK11 (11762145_a_at) / RFU FIZ1 (11724087_x_at) / Fold change /veh FIZ1 (11724087_x_at) / RFU OASL (11726364_x_at) / Fold change /veh OASL (11726364_x_at) / RFU SOX15 (11748057_x_at) / Fold change /veh SOX15 (11748057_x_at) / RFU CD79A (11719716_a_at) / Fold change /veh CD79A (11719716_a_at) / RFU HIST1H1D (11736915_at) / Fold change /veh HIST1H1D (11736915_at) / RFU CASKIN2 (11723855_a_at) / Fold change /veh CASKIN2 (11723855_a_at) / RFU LOC730098 (11760151_x_at) / Fold change /veh LOC730098 (11760151_x_at) / RFU OR4N2 (11742367_at) / Fold change /veh OR4N2 (11742367_at) / RFU PRRT2 (11749266_a_at) / Fold change /veh PRRT2 (11749266_a_at) / RFU SNX32 (11753110_a_at) / Fold change /veh SNX32 (11753110_a_at) / RFU CDHR5 (11726645_a_at) / Fold change /veh CDHR5 (11726645_a_at) / RFU RCAN1 (11760418_a_at) / Fold change /veh RCAN1 (11760418_a_at) / RFU FAM167A (11723789_a_at) / Fold change /veh FAM167A (11723789_a_at) / RFU FAM26E (11764081_at) / Fold change /veh FAM26E (11764081_at) / RFU ISYNA1 (11749810_s_at) / Fold change /veh ISYNA1 (11749810_s_at) / RFU ACY1 (11761880_at) / Fold change /veh ACY1 (11761880_at) / RFU 11764098_at / Fold change /veh 11764098_at / RFU SAMD14 (11745864_x_at) / Fold change /veh SAMD14 (11745864_x_at) / RFU NPB (11741838_a_at) / Fold change /veh NPB (11741838_a_at) / RFU TMPRSS6 (11731388_a_at) / Fold change /veh TMPRSS6 (11731388_a_at) / RFU KRTAP10-2 (11738614_at) / Fold change /veh KRTAP10-2 (11738614_at) / RFU ARHGAP8 /// PRR5-ARHGAP8 (11727945_x_at) / Fold change /veh ARHGAP8 /// PRR5-ARHGAP8 (11727945_x_at) / RFU KRTAP5-7 /// NADSYN1 (11734609_at) / Fold change /veh KRTAP5-7 /// NADSYN1 (11734609_at) / RFU RASL12 (11751679_a_at) / Fold change /veh RASL12 (11751679_a_at) / RFU CDKN2B (11736163_a_at) / Fold change /veh CDKN2B (11736163_a_at) / RFU PRF1 (11729649_at) / Fold change /veh PRF1 (11729649_at) / RFU, ZNF638 /// ZNF638-IT1 / Fold change vs veh, ZNF638 /// ZNF638-IT1 / RFU, PANK3 / Fold change vs veh, PANK3 / RFU, SH3YL1 / Fold change vs veh, SH3YL1 / RFU, ZEB2 / Fold change vs veh, ZEB2 / RFU, NRIP1 / Fold change vs veh, NRIP1 / RFU, PTTG1IP / Fold change vs veh, PTTG1IP / RFU, CAPN2 / Fold change vs veh, CAPN2 / RFU, MED14 / Fold change vs veh, MED14 / RFU, SNORA58 / Fold change vs veh, SNORA58 / RFU, C1orf63 / Fold change vs veh, C1orf63 / RFU, LRRFIP1 / Fold change vs veh, LRRFIP1 / RFU, NDUFAF7 / Fold change vs veh, NDUFAF7 / RFU, SLC12A2 / Fold change vs veh, SLC12A2 / RFU, IBTK / Fold change vs veh, IBTK / RFU, ESF1 / Fold change vs veh, ESF1 / Fold change vs veh, TMEM50B / RFU, TAOK1 / Fold change vs veh, TAOK1 / RFU, ACBD3 / Fold change vs veh, ACBD3 / RFU, TMA16 / Fold change vs veh, TMA16 / RFU, RWDD3 / Fold change vs veh, RWDD3 / RFU, BCAT1 / Fold change vs veh, BCAT1 / RFU, EDEM3 / Fold change vs veh, EDEM3 / RFU, TMEM33 / Fold change vs veh, TMEM33 / RFU, WDR75 / Fold change vs veh, WDR75 / RFU, AHCTF1 / Fold change vs veh, AHCTF1 / RFU, TFRC / Fold change vs veh, TFRC / RFU, ZDHHC17 / Fold change vs veh, ZDHHC17 / RFU, NOM1 / Fold change vs veh, NOM1 / RFU, ARL8B / Fold change vs veh, ARL8B / RFU, ZBTB11 / Fold change vs veh, ZBTB11 / RFU, TAMM41 / Fold change vs veh, TAMM41 / RFU, KIAA1704 /// LOC100996395 / Fold change vs veh, KIAA1704 /// LOC100996395 / RFU, ING1 / Fold change vs veh, ING1 / RFU, TRMT61B / Fold change vs veh, TRMT61B / RFU, FUBP3 / Fold change vs veh, FUBP3 / RFU, TP53 / Fold change vs veh, TP53 / RFU, TNKS2 / Fold change vs veh, TNKS2 / RFU, ZFP14 / Fold change vs veh, ZFP14 / RFU, ACTR2 / Fold change vs veh, ACTR2 / RFU, PPP3R1 / Fold change vs veh, PPP3R1 / RFU, PIK3R1 / Fold change vs veh, PIK3R1 / RFU, HNRNPA1 / Fold change vs veh, HNRNPA1 / RFU, RNF170 / Fold change vs veh, RNF170 / RFU, ZNF28 / Fold change vs veh, ZNF28 / RFU, RNGTT / Fold change vs veh, RNGTT / RFU, OGT / Fold change vs veh, OGT / RFU, BRD1 / Fold change vs veh, BRD1 / RFU, MARS / Fold change vs veh, MARS / RFU, ZNF655 / Fold change vs veh, ZNF655 / RFU, FAHD1 / Fold change vs veh, FAHD1 / RFU, BDP1 / Fold change vs veh, BDP1 / RFU, LRRCC1 / Fold change vs veh, LRRCC1 / RFU, ARID1A / Fold change vs veh, ARID1A / RFU, ZNF146 / Fold change vs veh, ZNF146 / RFU, ZNF330 / Fold change vs veh, ZNF330 / RFU, GPN3 / Fold change vs veh, GPN3 / RFU, C9orf123 / Fold change vs veh, C9orf123 / RFU, N4BP2L2 / Fold change vs veh, N4BP2L2 / RFU, ARFIP1 / Fold change vs veh, ARFIP1 / RFU, FAM179B / Fold change vs veh, FAM179B / RFU, BCL10 / Fold change vs veh, BCL10 / RFU, UHRF1BP1L / Fold change vs veh, UHRF1BP1L / RFU, BET1 / Fold change vs veh, BET1 / RFU, CNOT2 / Fold change vs veh, CNOT2 / RFU, ZNF268 / Fold change vs veh, ZNF268 / Fold change vs veh, ZNF507 / RFU, DGCR2 / Fold change vs veh, DGCR2 / RFU, WDSUB1 / Fold change vs veh, WDSUB1 / Fold change vs veh, HSP90B1 /// MIR3652 / RFU, ADSS / Fold change vs veh, ADSS / RFU, GK / Fold change vs veh, GK / RFU, ZNF148 / Fold change vs veh, ZNF148 / RFU, TAF9 / Fold change vs veh, TAF9 / RFU, SLC1A5 / Fold change vs veh, SLC1A5 / RFU, SLMO2 / Fold change vs veh, SLMO2 / RFU, ABCC4 / Fold change vs veh, ABCC4 / RFU, LOC101060439 /// RAP1B / Fold change vs veh, LOC101060439 /// RAP1B / RFU, RFX7 / Fold change vs veh, RFX7 / RFU, GTPBP10 / Fold change vs veh, GTPBP10 / RFU, CNEP1R1 / Fold change vs veh, CNEP1R1 / RFU, BIVM-ERCC5 /// ERCC5 / Fold change vs veh, BIVM-ERCC5 /// ERCC5 / RFU, ILF3 / Fold change vs veh, ILF3 / RFU 11762660_at / Fold change /veh 11762660_at / RFU VCAN (11757783_s_at) / Fold change /veh VCAN (11757783_s_at) / RFU DDX43 (11728927_at) / Fold change /veh DDX43 (11728927_at) / RFU KRT8 (11758188_x_at) / Fold change /veh KRT8 (11758188_x_at) / RFU NKD1 (11759106_at) / Fold change /veh NKD1 (11759106_at) / RFU SRD5A1 (11742802_a_at) / Fold change /veh SRD5A1 (11742802_a_at) / RFU TPSAB1 /// TPSB2 (11721975_s_at) / Fold change /veh TPSAB1 /// TPSB2 (11721975_s_at) / RFU GSTM3 (11746129_a_at) / Fold change /veh GSTM3 (11746129_a_at) / RFU IL23R (11737362_x_at) / Fold change /veh IL23R (11737362_x_at) / RFU TMEM51 (11727254_a_at) / Fold change /veh TMEM51 (11727254_a_at) / RFU PIWIL2 (11732686_x_at) / Fold change /veh PIWIL2 (11732686_x_at) / RFU ORM1 (11744905_x_at) / Fold change /veh ORM1 (11744905_x_at) / RFU CCDC152 (11743942_at) / Fold change /veh CCDC152 (11743942_at) / RFU ECM1 (11717891_a_at) / Fold change /veh ECM1 (11717891_a_at) / RFU IL23R (11748794_a_at) / Fold change /veh IL23R (11748794_a_at) / RFU TNFAIP8L3 (11732012_x_at) / Fold change /veh TNFAIP8L3 (11732012_x_at) / RFU MBOAT4 (11741988_at) / Fold change /veh MBOAT4 (11741988_at) / RFU 11764193_at / Fold change /veh 11764193_at / RFU TMEM53 (11763286_at) / Fold change /veh TMEM53 (11763286_at) / RFU MAGEB2 (11727129_at) / Fold change /veh MAGEB2 (11727129_at) / RFU TMEM200A (11744735_a_at) / Fold change /veh TMEM200A (11744735_a_at) / RFU CCDC152 (11751479_a_at) / Fold change /veh CCDC152 (11751479_a_at) / RFU FAM211A (11726209_a_at) / Fold change /veh FAM211A (11726209_a_at) / RFU RGS16 (11746705_a_at) / Fold change /veh RGS16 (11746705_a_at) / RFU VCAN (11755009_s_at) / Fold change /veh VCAN (11755009_s_at) / RFU RHOB (11743442_s_at) / Fold change /veh RHOB (11743442_s_at) / RFU RGS16 (11720943_a_at) / Fold change /veh RGS16 (11720943_a_at) / RFU RGS16 (11720944_at) / Fold change /veh RGS16 (11720944_at) / RFU, VPS4B / Fold change vs veh, VPS4B / RFU, CREB1 / Fold change vs veh, CREB1 / RFU, DNAJC13 / Fold change vs veh, DNAJC13 / RFU, GNAQ / Fold change vs veh, GNAQ / RFU, CDK5R1 / Fold change vs veh, CDK5R1 / RFU, ZRANB3 / Fold change vs veh, ZRANB3 / RFU, CUL4A / Fold change vs veh, CUL4A / RFU, CCNY / Fold change vs veh, CCNY / RFU, UFL1 / Fold change vs veh, UFL1 / RFU, COG3 / Fold change vs veh, COG3 / RFU, DIAPH2 / Fold change vs veh, DIAPH2 / RFU, SKA2 / Fold change vs veh, SKA2 / RFU, AFF3 / Fold change vs veh, AFF3 / RFU, LMF1 / Fold change vs veh, LMF1 / RFU, IPO11 / Fold change vs veh, IPO11 / RFU, DFFB / Fold change vs veh, DFFB / RFU, FOXP1 / Fold change vs veh, FOXP1 / RFU, CARD8 / Fold change vs veh, CARD8 / RFU, STRN3 / Fold change vs veh, STRN3 / RFU, ADK / Fold change vs veh, ADK / RFU, RASSF2 / Fold change vs veh, RASSF2 / RFU, WIPF1 / Fold change vs veh, WIPF1 / RFU, LARP1B / Fold change vs veh, LARP1B / RFU, RASA1 / Fold change vs veh, RASA1 / RFU, RB1 / Fold change vs veh, RB1 / RFU, PPFIA1 / Fold change vs veh, PPFIA1 / RFU, MAT2A / Fold change vs veh, MAT2A / RFU, CCT5 / Fold change vs veh, CCT5 / RFU, WDR92 / Fold change vs veh, WDR92 / RFU, CUX1 / Fold change vs veh, CUX1 / RFU, TTC7A / Fold change vs veh, TTC7A / RFU, TMEM135 / Fold change vs veh, TMEM135 / RFU, DEPTOR / Fold change vs veh, DEPTOR / RFU, CPM / Fold change vs veh, CPM / RFU, DNAJB6 / Fold change vs veh, DNAJB6 / RFU, CACNA2D3 / Fold change vs veh, CACNA2D3 / RFU, DTX4 / Fold change vs veh, DTX4 / RFU, TFCP2 / Fold change vs veh, TFCP2 / RFU, GMCL1 /// GMCL1P1 / Fold change vs veh, GMCL1 /// GMCL1P1 / RFU, AEBP2 / Fold change vs veh, AEBP2 / RFU, SNHG1 /// SNORD22 /// SNORD25 /// SNORD26 /// SNORD27 /// SNORD28 /// SNORD29 /// SNORD31 / Fold change vs veh, SNHG1 /// SNORD22 /// SNORD25 /// SNORD26 /// SNORD27 /// SNORD28 /// SNORD29 /// SNORD31 / Fold change (Aza/veh), C12orf56 (ProbeSet 11735607_a_at) / Fold change (ACY-1035/veh), C12orf56 (ProbeSet 11735607_a_at) / Fold change (Aza/veh), FGFR1OP (ProbeSet 11751329_s_at) / Fold change (ACY-1035/veh), FGFR1OP (ProbeSet 11751329_s_at) / Fold change (Aza/veh), VPS36 (ProbeSet 11739960_a_at) / Fold change (ACY-1035/veh), VPS36 (ProbeSet 11739960_a_at) / RFU SYPL1 (11715823_x_at) / Fold change /veh SYPL1 (11715823_x_at) / RFU IGFBP7 (11715501_s_at) / Fold change /veh IGFBP7 (11715501_s_at) / RFU REEP3 (11722064_at) / Fold change /veh REEP3 (11722064_at) / RFU IGLL1 (11728026_x_at) / Fold change /veh IGLL1 (11728026_x_at): dose or concentration left out as unconfirmed. To be noted: MV-4-11 cells, 48 hours.

On to `Nc1ncn([C@@H]2O[C@H](CO)[C@@H](O)[C@H]2O)c(=O)n1` [azacitidine], for which the “Fold change /veh C10orf10 (11716522_x_at)” value is on record as 1.15.

The values are drawn from publication PMC5218480 (PLoS ONE, 2017).
